From patent publication US8722644B2, “Mixture of hyaluronic acid for treating and preventing peptic ulcer and duodenal ulcer” (Holy Stone Healthcare Co., Ltd., priority 2010, dated 2014)

System: rats that had Aspirin induced gastrointestinal ulcers
Test: Treatment effects of PU98 on rats that had Aspirin induced gastrointestinal ulcers
Type: in vivo
Details: 200 mg Aspirin intraperitoneal day 1 to day 3 after fasting; thirty rats; internal abdominal bleeding upon dissection
Description: PU98 (composition of binary molecular weight of HA that are 70% HA with an average Mw of 2000 KDa and 30% HA with an average Mw of 1000 KDa in PBS solution, the final concentration is 0.5%; i.e. 0.5 g HA in 100 c.c. PBS solution).
Thirty eight-weeks-old SPF Sprague-Dawley male rats (BioLASCO Taiwan Co., Ltd.), were divided into 3 groups: study group (Aspirin/PU98), placebo group (Aspirin/PBS), control group (PBS), each group consisting of 10 rats with 2 rats housed per cage at the Animal Technology Institute Taiwan rodents room.
Before animal experimentation, rats were first fasted for 24 hours or more. From day one (D1) of experimentation to day three (D3), rats were given 1 ml of Aspirin (200 mg/ml) through intraperitoneal administration.
From day 4 to day 18, rats of the study group were given 1 ml of Aspirin (100 mg/ml) daily through intraperitoneal administration, they were also fed a 2 ml dosage of PU98 once every morning and afternoon.
From day 4 to day 18, rats of the placebo group were given 1 ml of Aspirin (100 mg/ml) daily through intraperitoneal administration, however they were fed a 2 ml dosage of PBS (placebo) once every morning and afternoon. […]
The present invention was analyzed by “student t test” to evaluate relationship between the study group, placebo group and control group.

CC(=O)Oc1ccccc1C(=O)O [Aspirin]
rats died on day 4 after Aspirin induction: 11
